Results from PMC3715890, “A Cyclic Peptide Inhibitor of HIF-1 Heterodimerization That Inhibits Hypoxia Signaling in Cancer Cells” (Journal of the American Chemical Society, 2013).
Entries after “also recorded” stand apart in the source; their conditions may differ.

Columns and labels:
[1] = molecular target: T1, His-HIF-1α1–350 with GST-HIF-1β1–474 (Homo sapiens, UniProt Q16665); experiment: ELISA of HIF-1 dimerization; format: biochemical; details: pH 7.5, 30 min preincubation, room temperature
T1 construct: heterodimerization of His-HIF-1α1–350 with GST-HIF-1β1–474 analyzed by ELISA; made in house; host or cells: E. coli BL21(DE3)
Excerpt: We next probed the effect of cyclo-CLLFVY on the interaction of HIF-1α with HIF-1β in vitro. […] Unfortunately, the positively charged Tat-tag of P1 is incompatible with EMSA (interferes with the bandshift of DNA). […] To determine the HIF-1-specificity of cyclo-CLLFVY, we assessed its ability to disrupt HIF-2 dimerization by ELISA. Recombinant His-HIF-2α1–351 was produced and purified, and shown to form functional heterodimers with GST-HIF-1β1–474 by EMSA (Figure S5B).
HIF-1β1-474, *please note that isoform 3 of HIF-1β was used). The standard protocol for protein expression was followed. Briefly, a 1 % culture in LB was incubated at 37 °C with shaking until OD600 of 0.6 was reached. 0.1 mM IPTG was added and the liquid culture incubated with shaking at 18 °C overnight. Cell pellets were suspended in MHW buffer9 (approximately 4 ml buffer per 1 g cell pellet). Lysozyme (100 µg/ml) was added to the lysate and the solution was incubated with shaking for 20 min at 5 °C. […]
glycerol) was added to individual wells of a Pierce Ni2+-coated 96-well plate (Thermo Scientific, catalogue no. […] The stated quantity of inhibitor (P1 or P2) was added as a solution in 100 µL of buffer to the desired wells, and the plate incubated at room temperature for 30 minutes. […]

PAS-B domain of HIF-1α = molecular target: T2, PAS-B domain of HIF-1α (Homo sapiens, UniProt Q16665); experiment: Isothermal titration calorimetry, PAS-B; format: binding; details: ITC, 25 °C, pH 7.5, 10 µM PAS-B
T2 construct: Per-ARNT-Sim-B (PAS-B, amino acids 235–350) domains; His (N); made in house; host or cells: E. coli BL21(DE3)

[2] = test system: VEGF mRNA in hypoxic U2OS cells; experiment: VEGF mRNA qPCR, U2OS; format: cell-based, human; details: hypoxia 16 h, 100 μM
Method: (§1) Cells were treated with the stated concentrations of inhibitor (P1, P2, or P3) and incubated in normoxia for 4 h, followed by incubation in a hypoxic environment. All manipulation of cell pellets (e.g., lysis, mRNA, and protein extraction) was conducted in a hypoxic environment.
(§2) Total RNA was extracted from MCF-7 and U2OS cells using RNeasy Mini Kit (74104, QIAGEN) and quantified using a Nanodrop ND-1000 spectrophotometer. Complementary DNA was synthesized in a 20 μL reaction containing 1 μg of total RNA, using qScript cDNA SuperMix (95048-100, Quanta Biosciences) according to the manufacturer’s instructions. Quantitative real-time PCRs were performed using Universal Taqman PCR master mix (Applied Biosystems) >and the Taqman gene expression assay of interest (Applied Biosystems) on an ABI StepOnePlus Real-Time PCR system (Applied Biosystems). Expression assays used in this study were HIF-1α (00936376_m1), VEGF-A (Hs00173626_m1), CAIX (Hs00154208_m1), LOX (Hs00942480_m1), HIF2α (Hs01026149_m1), CITED2 (Hs01897804_s1), and 18S (Hs99999901_m1). All expression values were normalized using expression of 18S.

[3] = test system: CAIX mRNA in hypoxic U2OS cells; experiment: CAIX mRNA qPCR, U2OS; format: cell-based, human; details: hypoxia, 100 μM
Method: as §1, §2

[4] = test system: VEGF mRNA in hypoxic MCF-7 cells; experiment: VEGF mRNA qPCR, MCF-7; format: cell-based; details: MCF-7, hypoxia 16 h, 100 μM
Method: as §1, §2

[5] = test system: CAIX mRNA in hypoxic MCF-7 cells; experiment: CAIX mRNA qPCR, MCF-7; format: cell-based; details: MCF-7, hypoxia, 100 μM
Method: as §1, §2

Substance: Tat-cyclo-CRLMVL (head to tail) [P2, cyclo-CRLMVL tagged with Tat peptide via a disulfide bond; used as negative control]
- effect on HIF-1 dimerization [1]: does not disrupt HIF-1 dimerization; also recorded: had no effect on HIF-1 dimerization
- binding to PAS-B domain (PAS-B domain of HIF-1α): no binding; also recorded: did not bind
- VEGF mRNA [2]: had no effect
- CAIX mRNA [3]: no effect
- VEGF mRNA [4]: had no effect
- CAIX mRNA [5]: no effect
